Assay results reported in US10995101B2, “2-oxo-thiazole derivatives as A2A inhibitors and compounds for use in the treatment of cancers” (iTeos Therapeutics SA, priority 2017, dated 2021).
pIC50: −log10 of the molar value.

What was measured:
[1] = target: A2AR (Mus musculus, UniProt Q60613); settings: 10 mg/kg PO 30 min prior to CGS21680; score observed in at least 60-100% of mice for 30 minutes
[2] = target: A2A receptor (Homo sapiens, UniProt P29274); test: Modulation of pCREB in human immune cells; assay type: cell-based; design: endogenous in cells; host or cells: human CD3+ T cells isolated from venous blood of healthy volunteers; settings: read-out: IC50 of pCREB inhibition
Description: The A2A receptor is known to mediate CREB phosphorylation.
Venous blood from healthy volunteers, all of whom signed an informed consent approved by the Ethics Committee (FOR-UIC-BV-050-01-01 ICF_HBS_HD Version 5.0), was obtained via ImmuneHealth (Centre Hospitalier Universitaire Tivoli, La Louviere, Belgium). […] All dilutions were prepared in RPMI1640 medium (with UltraGlutamine; Lonza, Verviers, Belgium), and cells were incubated with compounds in a 37° C. humidified tissue culture incubator with 5% CO2. After stimulation, cells were fixed and permeabilized, followed by intracellular staining using mouse anti-human pCREB antibodies (Clone J151-21; BD Biosciences) at room temperature. Data were acquired using an LSRFortessa flow cytometer (BD Biosciences) and analyzed using FlowJo software (FlowJo, LLC, Ashland, Oreg.).

Sequence of A2A receptor (P29274 whole entry): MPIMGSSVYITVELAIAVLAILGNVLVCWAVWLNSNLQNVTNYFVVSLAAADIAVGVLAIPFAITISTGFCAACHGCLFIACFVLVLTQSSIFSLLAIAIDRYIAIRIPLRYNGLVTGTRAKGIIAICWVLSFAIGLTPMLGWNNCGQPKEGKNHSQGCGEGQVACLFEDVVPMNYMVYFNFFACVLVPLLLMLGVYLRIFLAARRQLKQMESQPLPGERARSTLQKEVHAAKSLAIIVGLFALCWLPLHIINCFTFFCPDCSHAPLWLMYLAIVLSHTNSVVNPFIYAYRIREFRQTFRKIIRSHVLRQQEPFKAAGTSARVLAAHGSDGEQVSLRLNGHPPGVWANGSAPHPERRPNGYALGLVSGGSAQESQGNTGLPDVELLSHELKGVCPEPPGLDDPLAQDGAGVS
Sequence of A2AR (Q60613 whole entry): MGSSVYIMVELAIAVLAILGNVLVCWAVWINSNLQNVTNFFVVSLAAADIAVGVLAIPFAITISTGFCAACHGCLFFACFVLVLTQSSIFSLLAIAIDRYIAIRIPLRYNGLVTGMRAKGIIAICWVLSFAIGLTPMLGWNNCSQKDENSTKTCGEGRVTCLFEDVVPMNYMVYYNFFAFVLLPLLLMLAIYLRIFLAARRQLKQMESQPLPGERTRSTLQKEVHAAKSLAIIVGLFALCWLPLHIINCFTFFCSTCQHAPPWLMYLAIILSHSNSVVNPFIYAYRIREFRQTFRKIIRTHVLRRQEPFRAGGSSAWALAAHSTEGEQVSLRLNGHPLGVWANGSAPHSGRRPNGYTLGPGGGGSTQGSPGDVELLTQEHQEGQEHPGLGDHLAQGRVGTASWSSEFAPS

`NC(=O)COc1cc(N2CCN(CCn3c(=O)sc4c3nc(N)n3nc(-c5ccco5)nc43)CC2)c(F)cc1F` [Compound 4, 2-(5-(4-(2-(5-amino-8-(furan-2-yl)-2-oxothiazolo[5,4-e][1,2,4]triazolo [1,5-c]pyrimidin-3(2H)-yl)ethyl)piperazin-1-yl)-2,4-difluorophenoxy)acetamide] was tested, and the “Score (locomotion / immobility)” value [1] was “+++” and the pIC50 [2] was 7.70.
